Results taken from ChEMBL document CHEMBL5625209, “Rational design and optimization of acylthioureas as novel potent influenza virus non-nucleoside polymerase inhibitors” (Eur J Med Chem, 2023).

Tested on: Influenza A virus
Assay: Antiviral activity against Influenza A virus H1N1 (A/Puerto Rico/8/34) harboring H274Y mutant infected in MDCK cells
Format: functional, organism-based

Structure (SMILES)	EC50
CC(C)(C)c1ccc(C(=O)NC(=S)Nc2ccc(NC(=O)c3ccc(Cl)cc3)cc2)cc1	400 nM
CC(C)(C)c1ccc(C(=O)NC(=S)Nc2ccc(NC(=O)c3ccc(C(C)(C)C)cc3)cc2)cc1	20 nM
CC(C)(C)c1ccc(C(=O)NC(=S)Nc2ccc(O)cc2)cc1	9400 nM
CC(C)(C)c1ccc(C(=O)NC(=S)Nc2ccc(NC(=O)c3ccccc3)cc2)cc1	600 nM
CCC(=O)Nc1ccc(NC(=S)NC(=O)c2ccc(C(C)(C)C)cc2)cc1	5400 nM
